Target: T1, human ANO6 (variant 5) (Homo sapiens, UniProt Q4KMQ2)
T1 construct: expressed in transfected cells; host or cells: Fischer rat thyroid (FRT) cells
T1 sequence (Q4KMQ2 1-931 isoform Q4KMQ2-2): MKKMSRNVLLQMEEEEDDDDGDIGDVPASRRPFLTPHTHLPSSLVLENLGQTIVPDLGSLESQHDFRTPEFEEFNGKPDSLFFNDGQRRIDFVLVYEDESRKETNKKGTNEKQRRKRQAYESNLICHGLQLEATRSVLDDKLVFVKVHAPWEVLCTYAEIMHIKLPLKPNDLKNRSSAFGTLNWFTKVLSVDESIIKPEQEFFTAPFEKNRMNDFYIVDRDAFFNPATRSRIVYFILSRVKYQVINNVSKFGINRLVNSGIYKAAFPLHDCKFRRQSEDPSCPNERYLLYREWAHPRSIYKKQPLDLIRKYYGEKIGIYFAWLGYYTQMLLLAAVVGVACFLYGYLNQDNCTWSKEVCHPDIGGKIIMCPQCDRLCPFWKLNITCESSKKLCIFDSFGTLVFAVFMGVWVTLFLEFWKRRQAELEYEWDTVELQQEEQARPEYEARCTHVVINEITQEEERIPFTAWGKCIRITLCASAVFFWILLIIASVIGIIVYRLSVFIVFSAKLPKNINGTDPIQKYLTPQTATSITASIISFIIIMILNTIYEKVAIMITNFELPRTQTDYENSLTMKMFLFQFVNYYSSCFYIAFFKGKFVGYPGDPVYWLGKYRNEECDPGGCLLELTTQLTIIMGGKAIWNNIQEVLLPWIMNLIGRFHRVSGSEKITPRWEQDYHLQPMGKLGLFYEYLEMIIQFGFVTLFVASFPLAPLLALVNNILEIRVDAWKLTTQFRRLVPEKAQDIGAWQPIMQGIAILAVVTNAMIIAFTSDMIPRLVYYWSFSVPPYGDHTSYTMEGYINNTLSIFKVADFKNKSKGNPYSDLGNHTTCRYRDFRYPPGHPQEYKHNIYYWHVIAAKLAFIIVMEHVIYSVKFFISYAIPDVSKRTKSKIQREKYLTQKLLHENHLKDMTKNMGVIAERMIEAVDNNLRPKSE
Experiment: Lact C2 assay (measuring phosphatidylserine externalization scramblase function)
Format: cell-based
Details: FRT, FRT cells expressing human ANO6 (variant 5), ionomycin 10 µM, Lact-C2-GFP fluorescence, average of three tests; for inhibition at 0.05 µM: compound 50 nM, read-out: % Inhibition 50 nM; for inhibition at 1 µM: compound 1 µM, read-out: % Inhibition 1 µM; for inhibition at 0.1 µM: compound 100 nM
Procedure, shortened: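 Cells were pretreated 10 min with compound (50 nM, 100 nM, 1 µM; 1% DMSO), then given 10 µM ionomycin for 10 min. Surface phosphatidylserine was stained with 500 nM Lact-C2-GFP (10 min, 37 °C), fixed and imaged. Inhibition was scaled between untreated (100%) and ionomycin-alone (0%) wells.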

SMILES	inhibition at 0.05 µM [%]	inhibition at 1 µM [%]	inhibition at 0.1 µM [%]
Cc1cccc2nc(-c3cccc(Nc4ccc(-c5cccnn5)cc4)c3)[nH]c12 [Example 101, 3-(7-methyl-1H-benzo[d]imidazol-2-yl)-N-(4-pyridazin-3-ylphenyl)aniline]	> 60	> 60	
COc1ccc(-c2ccc(Nc3cccc(-c4nc5ccccc5[nH]4)c3)cc2)nn1 [Example 275, 3-(1H-benzo[d]imidazol-2-yl)-N-(4-(6-methoxypyridazin-3-yl)phenyl)aniline]		> 60	
c1cc(Nc2ccc(-c3cncnc3)cc2)cc(-c2nc3ccccc3[nH]2)c1 [Example 30, 3-(1H-benzo[d]imidazol-2-yl)-N-(4-(pyrimidin-5-yl)phenyl)aniline]	30 to 60		30 to 60
COc1cc(Nc2cccc(-c3nc4ccccc4[nH]3)c2)ccc1-c1cccnn1 [Example 208, N-(3-(1H-benzo[d]imidazol-2-yl)phenyl)-3-methoxy-4-(pyridazin-3-yl)aniline]		> 60	
FC(F)(F)c1cc2[nH]c(-c3cccc(Nc4ncc(-c5ccccn5)cn4)c3)nc2cn1 [Example 242, 5-(pyridin-2-yl)-N-(3-(6-(trifluoromethyl)-1H-imidazo[4,5-c]pyridin-2-yl)phenyl)pyrimidin-2-amine]	> 60	> 60	
CN1CCN(CCOc2ccc(-c3nc4ccc(C(F)(F)F)cc4[nH]3)cc2Nc2ccc(-c3cnccn3)cc2)CC1 [Example 175, 2-[2-(4-methylpiperazin-1-yl)ethoxy]-N-(4-pyrazin-2-ylphenyl)-5-[6-(trifluoromethyl)-1H-benzo[d]imidazol-2-yl]aniline]		> 60	
Fc1ccc2nc(-c3cccc(Nc4ccc(-c5ccncn5)cc4)c3)[nH]c2c1 [Example 96, 3-(6-fluoro-1H-benzo[d]imidazol-2-yl)-N-(4-pyrimidin-4-ylphenyl)aniline]	> 60	> 60	
c1cc(Nc2ncc(-c3ccsc3)cn2)cc(-c2nc3ccccc3[nH]2)c1 [Example 164, N-[3-(1H-benzo[d]imidazol-2-yl)phenyl]-5-(3-thienyl)pyrimidin-2-amine]	30 to 60	> 60	
COC(=O)c1ccc2nc(-c3cccc(Nc4ccc(-c5cccnn5)cc4)c3)[nH]c2c1 [Example 61, methyl 2-(3-((4-(pyridazin-3-yl)phenyl)amino)phenyl)-1H-benzo[d]imidazol-6-carboxylate]	> 60		> 60
Clc1ccc2nc(-c3cccc(Nc4ccc(-c5cccnn5)cc4)c3)[nH]c2c1 [Example 226, 3-(6-chloro-1H-benzo[d]imidazol-2-yl)-N-(4-(pyridazin-3-yl)phenyl)aniline]	> 60		
Clc1cc2[nH]c(-c3cccc(Nc4ccc(-c5ccccn5)cn4)c3)nc2cn1 [Example 282, N-(3-(6-chloro-1H-imidazo[4,5-c]pyridin-2-yl)phenyl)-[2,3'-bipyridin]-6'-amine]	30 to 60	> 60	
Fc1cc2nc(-c3cccc(Nc4ncc(-c5cccnn5)cn4)c3)[nH]c2cc1F [Example 99, N-[3-(5,6-difluoro-1H-benzo[d]imidazol-2-yl)phenyl]-5-pyridazin-3-yl-pyrimidin-2-amine]	30 to 60	> 60	
FC(F)Oc1ccc2nc(-c3cccc(Nc4cnc(-c5ccccn5)cn4)c3)[nH]c2c1 [Example 300, N-(3-(6-(difluoromethoxy)-1H-benzo[d]imidazol-2-yl)phenyl)-5-(pyridin-2-yl) pyrazin-2-amine]	30 to 60	> 60	
c1cc(Nc2ccc(C3CCCCC3)cc2)cc(-c2nc3ccccc3[nH]2)c1 [Example 97, 3-(1H-benzo[d]imidazol-2-yl)-N-(4-cyclohexylphenyl)aniline]		> 60	
c1ccc(-c2cnc(Nc3cccc(-c4nc5ccccc5[nH]4)c3)cn2)nc1 [Example 276, N-(3-(1H-benzo[d]imidazol-2-yl)phenyl)-5-(pyridin-2-yl)pyrazin-2-amine]	> 60		
Fc1ccc(-c2ccc(Nc3cccc(-c4nc5ccc(C(F)(F)F)cc5[nH]4)c3)cc2)nn1 [Example 264, N-(4-(6-fluoropyridazin-3-yl)phenyl)-3-(6-(trifluoromethyl)-1H-benzo[d]imidazol-2-yl) aniline]	> 60		
Cc1cc(-c2cccnn2)ccc1Nc1cccc(-c2nc3ccccc3[nH]2)c1 [Example 203, N-(3-(1H-benzo[d]imidazol-2-yl)phenyl)-2-methyl-4-(pyridazin-3-yl)aniline]	30 to 60	> 60	
FC(F)(F)c1ccc2nc(-c3cccc(Nc4ncc(-c5cscn5)cn4)c3)[nH]c2c1 [Example 304, 5-(thiazol-4-yl)-N-(3-(6-(trifluoromethyl)-1H-benzo[d]imidazol-2-yl)phenyl)pyrimidin-2-amine]	30 to 60	> 60	
Cc1cscc1-c1cnc(Nc2cccc(-c3nc4ccccc4[nH]3)c2)nc1 [Example 43, N-(3-(1H-benzo[d]imidazol-2-yl)phenyl)-5-(4-methylthiophen-3-yl)pyrimidin-2-amine]	> 60		> 60
FC(F)(F)Oc1cc2nc(-c3cccc(Nc4ccc(-c5ccccc5)nn4)c3)[nH]c2cc1Cl [Example 10, N-{3-[6-chloro-5-(trifluoromethoxy)-1H-benzo[d]imidazol-2-yl]phenyl}-6-phenylpyridazin-3-amine]	> 60	> 60	> 60
Fc1ccc(-c2ccc(Nc3cccc(-c4nc5ccc(C(F)(F)F)cc5[nH]4)c3)cc2)nc1 [Example 253, N-(4-(5-fluoropyridin-2-yl)phenyl)-3-(6-(trifluoromethyl)-1H-benzo[d]imidazol-2-yl)aniline]	> 60	> 60	
Cc1cc2nc(-c3cccc(Nc4ccc(-c5cccnn5)cc4)c3)[nH]c2cc1F [Example 114, 3-(6-fluoro-5-methyl-1H-benzo[d]imidazol-2-yl)-N-(4-pyridazin-3-ylphenyl)aniline]	30 to 60	> 60	
FC(F)(F)c1ccc2nc(-c3cccc(Nc4ccc(-c5ccncn5)cc4)c3)[nH]c2c1 [Example 24, N-(4-(pyrimidin-4-yl)phenyl)-3-(6-(trifluoromethyl)-1H-benzo[d]imidazol-2-yl)aniline]	> 60	> 60	> 60
c1cc(Nc2ccc(-c3ccncn3)cn2)cc(-c2nc3ccccc3[nH]2)c1 [Example 68, N-[3-(1H-benzo[d]imidazol-2-yl)phenyl]-5-(pyrimidin-4-yl)pyridin-2-amine]	> 60		> 60
Fc1cc2[nH]c(-c3cccc(Nc4ccc(-c5ccccn5)cn4)c3)nc2cn1 [Example 281, N-(3-(6-fluoro-1H-imidazo[4,5-c]pyridin-2-yl)phenyl)-[2,3'-bipyridin]-6'-amine]	> 60	> 60	
FC(F)Oc1ccc2nc(-c3cccc(Nc4ncc(-c5ccccn5)cn4)c3)[nH]c2c1 [Example 285, N-(3-(6-(difluoromethoxy)-1H-benzo[d]imidazol-2-yl)phenyl)-5-(pyridin-2-yl)pyrimidin-2-amine]	> 60	> 60	
Fc1cccc(-c2ccc(Nc3cccc(-c4nc5ccc(C(F)(F)F)cc5[nH]4)c3)cc2)n1 [Example 252, N-(4-(6-fluoropyridin-2-yl)phenyl)-3-(6-(trifluoromethyl)-1H-benzo[d]imidazol-2-yl)aniline]	> 60	> 60	
Fc1cc(-c2cccnn2)ccc1Nc1cccc(-c2nc3ccccc3[nH]2)c1 [Example 269, N-(3-(1H-benzo[d]imidazol-2-yl)phenyl)-2-fluoro-4-(pyridazin-3-yl)aniline]	30 to 60	> 60	
FC(F)(F)c1cc2[nH]c(-c3cccc(Nc4ncc(-c5cccnn5)cn4)c3)nc2cn1 [Example 103, 5-pyridazin-3-yl-N-[3-[6-(trifluoromethyl)-1H-imidazo[4,5-c]pyridin-2-yl]phenyl]pyrimidin-2-amine]		> 60	
